Experimental data: PMC6754302 (Cell chemical biology, 2019)
Entries after “also recorded” stand apart in the source; their conditions may differ.

Key:
caspase-6 (C6) [1] = molecular target: T1, caspase-6 (C6) (Homo sapiens, UniProt P55212); test: C6 activity assay using the VEID-AFC peptide as a substrate; assay type: biochemical
T1 sequence (P55212 24-179 limits assumed): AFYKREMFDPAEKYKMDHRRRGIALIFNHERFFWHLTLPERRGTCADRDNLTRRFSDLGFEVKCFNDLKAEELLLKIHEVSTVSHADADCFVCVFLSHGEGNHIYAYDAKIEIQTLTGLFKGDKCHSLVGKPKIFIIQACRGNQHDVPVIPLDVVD
T1 sequence (P55212 194-293 limits assumed): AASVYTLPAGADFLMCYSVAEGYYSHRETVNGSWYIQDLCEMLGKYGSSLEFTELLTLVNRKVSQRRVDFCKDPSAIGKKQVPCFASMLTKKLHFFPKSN

pro-C6 (C6 zymogen) [2] = test: LE22 labelling of C6 in lysates of transfected COS-7 cells; assay type: cell-based, human; details: 10 μM in the culture medium, co-transfection with mHTT1–586
pro-C6 (C6 zymogen) [3] = molecular target: T2, pro-C6 (C6 zymogen) (Homo sapiens, UniProt P55212); test: as above; assay type: cell-based
T2 sequence (P55212 1-293): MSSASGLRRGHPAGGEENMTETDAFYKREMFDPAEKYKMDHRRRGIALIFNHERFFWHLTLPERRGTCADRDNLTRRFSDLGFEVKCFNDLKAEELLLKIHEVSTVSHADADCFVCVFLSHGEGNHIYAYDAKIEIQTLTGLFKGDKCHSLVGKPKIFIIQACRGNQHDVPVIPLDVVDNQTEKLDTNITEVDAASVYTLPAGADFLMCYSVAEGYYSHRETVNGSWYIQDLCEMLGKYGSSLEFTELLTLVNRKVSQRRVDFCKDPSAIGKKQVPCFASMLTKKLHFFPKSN

[4] = molecular target: T3, intracellular C6 activity (Homo sapiens, UniProt P55212); test: Intracellular lamin A cleavage ELISA; assay type: cell-based
T3 sequence (P55212 24-293): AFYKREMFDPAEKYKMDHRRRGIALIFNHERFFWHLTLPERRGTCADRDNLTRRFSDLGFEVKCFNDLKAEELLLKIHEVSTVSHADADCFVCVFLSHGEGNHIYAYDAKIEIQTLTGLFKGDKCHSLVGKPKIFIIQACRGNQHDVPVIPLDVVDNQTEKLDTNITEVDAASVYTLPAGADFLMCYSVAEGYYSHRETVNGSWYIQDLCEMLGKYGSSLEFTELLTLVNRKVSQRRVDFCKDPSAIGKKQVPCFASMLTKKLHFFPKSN

Recombinant C6 enzyme [5] = molecular target: T4, Recombinant C6 enzyme (Homo sapiens, UniProt P55212); test: Washout experiment; assay type: biochemical; details: read-out: inhibition of C6 activity after washout
T4 sequence (P55212 24-179 limits assumed): T1 sequence (P55212 24-179 limits assumed)
T4 sequence (P55212 194-293 limits assumed): T1 sequence (P55212 194-293 limits assumed)

Recombinant C6 enzyme [6] = molecular target: T4, Recombinant C6 enzyme; details: 10 μM inhibitor
C6 = molecular target: T5, C6 (Homo sapiens, UniProt P55212); assay type: cell-based; details: for intracellular C6-mediated cleavage of HTT1–1212 (HTT1–586 fragment): COS-7 cells co-transfected with C6 and HTT1–1212, compound in the media
T5 sequence (P55212 24-293): T3 sequence (P55212 24-293)

C6-HTT interaction = molecular target: T6, C6-HTT interaction (Homo sapiens, UniProt P55212); test: Co-immunoprecipitation of HTT with DDK-tagged C6 from co-transfected COS-7 cells; assay type: cell-based
T6 sequence (P55212 24-293): T3 sequence (P55212 24-293)

caspase-6 (C6) [7] = molecular target: T1, caspase-6 (C6); test: TR-FRET-based C6 activity assay with HTT1–1212 as substrate; assay type: biochemical; details: for shift of dose-response curve with pre-incubation time: 0 min vs 60 min pre-incubation of C6 with compound

O=c1oc(C#Cc2ccccc2)nc(O)c1Cc1ccccc1 [PG3d, 5-Benzyl-4-hydroxy-2-(phenylethynyl)-6H-1,3-oxazin-6-one]
inhibitory effect on C6-mediated cleavage of small peptide substrates (VEID-AFC) (caspase-6 (C6) [1]): minimal inhibitory effect | LE22 labelling for deltaPro and D23A C6 (pro-C6 (C6 zymogen) [2]): normalized the amount of LE22 labelling | mHTT1–586-induced increase of LE22 binding to pro-C6 (C6wt) (pro-C6 (C6 zymogen) [3]; 10 μM in the culture medium, co-transfection with mHTT1–586): completely reversed | inhibition of lamin A proteolysis [4]: strong inhibition | inhibition at 10 µM (Recombinant C6 enzyme [5]): 100% | LE22 labelling of C6 after inhibitor pre-incubation (Recombinant C6 enzyme [6]): did not block accessibility of the active site | intracellular C6-mediated cleavage of HTT1–1212 (HTT1–586 fragment) (C6): inhibited | reduction in HTT co-immunoprecipitation (C6-HTT interaction; PG3d 10 μM in the media, mHTT1–1212): 50% | inhibition of HTT proteolysis (caspase-6 (C6) [7]): strong inhibition | shift of dose-response curve with pre-incubation time (caspase-6 (C6) [7]): shift towards a lower IC50 value

CC(C)[C@H](NC(=O)c1ccc2ccccc2n1)C(=O)N[C@@H](CC(=O)O)C(=O)COc1c(F)cccc1F [Q-VD-OPh]
proportion of pro-C6 and p18-C6 labelled with LE22 (pro-C6 (C6 zymogen) [3]; C6-transfected cells treated with Q-VD-OPh prior to lysis): decreased | intracellular generation of active C6 subunits (p18) (C6; COS-7 cells co-transfected with C6 and HTT1–1212, Q-VD-OPh 3 μM): reduces the intracellular generation of active C6 subunits | intracellular C6-mediated cleavage of HTT1–1212 (HTT1–586 fragment) (C6): lowers HTT1–586 fragment levels | effect on co-immunoprecipitation of HTT with C6 (C6-HTT interaction; Q-VD-OPh 3 μM): not prevented; also recorded: no significant difference

VDVAD-CHO [reference compound]
LE22 labelling of C6 after inhibitor pre-incubation (Recombinant C6 enzyme [6]): is replaced by the irreversible binding of the LE22 probe | shift of dose-response curve with pre-incubation time (caspase-6 (C6) [7]): did not exhibit time-dependent behaviour

zVAD-fmk
LE22 labelling of C6 after inhibitor pre-incubation (Recombinant C6 enzyme [6]): prevented labelling of C6 with LE22
